Like-named read-outs stand apart in the source and are kept apart here.
What was measured:
hDAT [1] = target: T1, hDAT (Homo sapiens, UniProt Q01959); conditions: 10 μM; [^3H]24 binding, PDSP; ref Janowsky et al.[3]; cited from earlier work
mA3AR = target: T2, mA3AR (Mus musculus, UniProt Q61618); test: A3AR radioligand; assay type: binding; conditions: for A3AR Binding % at 10 μM (m): mouse, % inhibition at 10 μM, radioligand [^125I]25
T2 sequence (Q61618 1-319): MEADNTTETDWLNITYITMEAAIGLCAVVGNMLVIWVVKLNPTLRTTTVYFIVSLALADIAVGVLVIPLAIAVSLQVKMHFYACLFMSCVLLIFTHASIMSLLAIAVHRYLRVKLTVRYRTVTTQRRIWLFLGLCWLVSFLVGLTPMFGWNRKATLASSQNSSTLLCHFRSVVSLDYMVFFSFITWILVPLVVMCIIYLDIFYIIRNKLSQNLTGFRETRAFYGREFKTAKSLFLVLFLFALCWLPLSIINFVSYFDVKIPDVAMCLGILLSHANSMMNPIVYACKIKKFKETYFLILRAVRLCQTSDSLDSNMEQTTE

hDAT [2] = target: T1, hDAT; test: PDSP screen: [^3H]24 binding at hDAT; conditions: for inhibition at 10 µM: read-out: hDAT Binding Inhibition, % of control; for remaining activity at 10 µM: read-out: hDAT Binding Enhancement, % of control
[3] = test system: mouse chronic constriction injury (CCI) model of neuropathic pain; test: mouse chronic constriction injury; assay type: in vivo; conditions: 3 μmol/kg, p.o.; 7 d post-injury
hNET = hNET (Homo sapiens, UniProt P23975); test: [^125I]23 binding to HEK-hNET membranes; conditions: maximal enhancement
hDAT [4] = target: T1, hDAT; test: [^125I]23 binding to HEK-hDAT membranes; conditions: maximal enhancement
hDAT [5] = target: T1, hDAT; test: [^3H]26 binding to HEK-hDAT membranes

T1 sequence (Q01959 whole entry): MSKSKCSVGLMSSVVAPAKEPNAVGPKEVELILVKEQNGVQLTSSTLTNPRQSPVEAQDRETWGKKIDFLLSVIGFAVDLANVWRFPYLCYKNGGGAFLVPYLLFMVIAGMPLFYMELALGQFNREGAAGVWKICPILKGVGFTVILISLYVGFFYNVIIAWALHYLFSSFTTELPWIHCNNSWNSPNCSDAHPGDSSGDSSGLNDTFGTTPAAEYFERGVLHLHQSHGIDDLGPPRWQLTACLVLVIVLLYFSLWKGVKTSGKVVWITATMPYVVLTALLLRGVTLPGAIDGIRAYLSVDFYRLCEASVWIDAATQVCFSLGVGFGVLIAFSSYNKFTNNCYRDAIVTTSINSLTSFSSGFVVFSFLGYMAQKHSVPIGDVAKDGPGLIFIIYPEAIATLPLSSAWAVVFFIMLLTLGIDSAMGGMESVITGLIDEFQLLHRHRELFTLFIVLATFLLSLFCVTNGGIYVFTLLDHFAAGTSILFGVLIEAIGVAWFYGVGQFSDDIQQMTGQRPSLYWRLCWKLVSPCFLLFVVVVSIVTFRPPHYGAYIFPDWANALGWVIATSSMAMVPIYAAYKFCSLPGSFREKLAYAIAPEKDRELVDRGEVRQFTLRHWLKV
hNET, sequence (P23975 whole entry): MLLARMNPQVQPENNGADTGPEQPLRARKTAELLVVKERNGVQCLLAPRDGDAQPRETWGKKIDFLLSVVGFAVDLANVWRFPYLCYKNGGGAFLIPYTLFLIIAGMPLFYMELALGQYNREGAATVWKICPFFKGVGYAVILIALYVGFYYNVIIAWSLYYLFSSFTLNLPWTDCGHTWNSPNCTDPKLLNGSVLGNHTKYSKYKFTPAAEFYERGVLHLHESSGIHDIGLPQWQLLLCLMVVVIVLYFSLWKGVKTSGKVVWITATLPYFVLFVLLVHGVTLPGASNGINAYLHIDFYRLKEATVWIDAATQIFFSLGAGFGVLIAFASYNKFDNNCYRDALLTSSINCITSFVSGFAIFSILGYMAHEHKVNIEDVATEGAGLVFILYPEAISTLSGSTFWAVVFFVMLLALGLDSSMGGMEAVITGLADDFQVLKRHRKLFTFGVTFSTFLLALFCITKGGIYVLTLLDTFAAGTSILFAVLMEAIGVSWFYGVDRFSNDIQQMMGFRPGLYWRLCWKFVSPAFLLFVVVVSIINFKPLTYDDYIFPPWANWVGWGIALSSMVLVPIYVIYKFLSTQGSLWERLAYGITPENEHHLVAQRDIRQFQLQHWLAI

Row | inhibition at 10 µM (hDAT [2]) [%] | Compound | also measured
1 | -20 to 20 | CNc1nc(C#Cc2ccc(Cl)s2)nc2c1ncn2[C@H]1[C@H](O)[C@H](O)[C@]2(C(=O)OCc3ccccc3)C[C@H]12 [compound 19, Benzyl (1S,2R,3S,4R,5S)-4-(2-((5-chlorothiophen-2-yl)ethynyl)-6-(methylamino)-9H-purin-9-yl)-2,3-dihydroxybicyclo[3.1.0]hexane-1-carboxylate] | –
2 | < -20 | CNC(=O)[C@H]1O[C@@H](n2cnc3c(NC)nc(C#Cc4ccc(Cl)s4)nc32)[C@H](O)[C@@H]1O [compound 27, (2S,3S,4R,5R)-5-(2-((5-Chlorothiophen-2-yl)ethynyl)-6-(methylamino)-9H-purin-9-yl)-3,4-dihydroxy-N-methyltetrahydrofuran-2-carboxamide] | efficacy in increasing paw withdrawal threshold (PWT) [3]: fully efficacious
3 | -20 to 20 | CNc1nc(C#Cc2ccc(Cl)s2)nc2c1ncn2[C@H]1[C@H](O)[C@H](O)[C@]2(C(=O)OCCC3CCCCC3)C[C@H]12 [compound 18, 2-Cyclohexylethyl (1S,2R,3S,4R,5S)-4-(2-((5-chlorothiophen-2-yl)ethynyl)-6-(methylamino)-9H-purin-9-yl)-2,3-dihydroxybicyclo[3.1.0]hexane-1-carboxylate] | –
4 | < -20 | CCCNc1nc(C#Cc2ccc(Cl)s2)nc2c1ncn2[C@@H]1O[C@H](C(=O)NC)[C@@H](O)[C@H]1O [compound 28, (2S,3S,4R,5R)-5-(2-((5-Chlorothiophen-2-yl)ethynyl)-6-(n-propylamino)-9H-purin-9-yl)-3,4-dihydroxy-N-methyltetrahydrofuran-2-carboxamide] | efficacy in increasing paw withdrawal threshold (PWT) [3]: fully efficacious
5 | < -20 | CNc1nc(C#Cc2ccc(Cl)s2)nc2c1ncn2[C@H]1[C@H](O)[C@H](O)[C@]2(C(=O)OCCC(C)C)C[C@H]12 [compound 17, Isopentyl (1S,2R,3S,4R,5S)-4-(2-((5-chlorothiophen-2-yl)ethynyl)-6-(methylamino)-9H-purin-9-yl)-2,3-dihydroxybicyclo[3.1.0]hexane-1-carboxylate] | –
6 | -20 to 20 | CNc1nc(C#Cc2ccc(Cl)s2)nc2c1ncn2[C@H]1[C@H](O)[C@H](O)[C@]2(C(=O)OCCCc3ccccc3)C[C@H]12 [compound 21, 3-Phenylpropyl (1S,2R,3S,4R,5S)-4-(2-((5-chlorothiophen-2-yl)ethynyl)-6-(methylamino)-9H-purin-9-yl)-2,3-dihydroxybicyclo[3.1.0]hexane-1-carboxylate] | –
7 | -20 to 20 | CNc1nc(C#Cc2ccc(Cl)s2)nc2c1ncn2[C@H]1[C@H](O)[C@H](O)[C@]2(C(=O)OCCc3ccccc3)C[C@H]12 [compound 20, 2-Phenylethyl (1S,2R,3S,4R,5S)-4-(2-((5-chlorothiophen-2-yl)ethynyl)-6-(methylamino)-9H-purin-9-yl)-2,3-dihydroxybicyclo[3.1.0]hexane-1-carboxylate] | –
8 | < -20 | CNc1nc(C#Cc2ccc(Cl)s2)nc2c1ncn2[C@H]1[C@H](O)[C@H](O)[C@]2(C(=O)O)C[C@H]12 [compound 22, (1S,2R,3S,4R,5S)-4-(2-((5-Chlorothiophen-2-yl)ethynyl)-6-(methylamino)-9H-purin-9-yl)-2,3-dihydroxybicyclo[3.1.0]hexane-1-carboxylic acid] | –

Continued, compound first:

Row | Compound | inhibition at 10 µM (hDAT [2]) [%] | also measured
9 | CNC(=O)[C@@]12C[C@@H]1[C@@H](n1cnc3c(NC)nc(C#Cc4ccc(Br)s4)nc31)[C@H](O)[C@@H]2O [compound 2] | – | hDAT Binding Inhibition, % of control (hDAT [1]): NE (no effect)
10 | CCCNc1nc(C#Cc2ccc(Cl)s2)nc2c1ncn2[C@H]1[C@H](O)[C@H](O)[C@]2(C(=O)NC)C[C@H]12 [compound 7] | – | hDAT Binding Inhibition, % of control (hDAT [1]): NE (no effect); fold greater mA3AR affinity compared to ribose 5′-amide 28 (mA3AR): 88 fold
11 | CCCOC(=O)[C@@]12C[C@@H]1[C@@H](n1cnc3c(NC)nc(C#Cc4ccc(Cl)s4)nc31)[C@H](O)[C@@H]2O [compound 14, n-Propyl (1S,2R,3S,4R,5S)-4-(2-((5-chlorothiophen-2-yl)ethynyl)-6-(methylamino)-9H-purin-9-yl)-2,3-dihydroxybicyclo[3.1.0]hexane-1-carboxylate] | < -20 | –
12 | CNc1nc(C#Cc2ccc(Cl)s2)nc2c1ncn2[C@H]1[C@H](O)[C@H](O)[C@]2(C(=O)NCCN)C[C@H]12 [compound 8, (1S,2R,3S,4R,5S)-N-(2-Aminoethyl)-4-(2-((5-chlorothiophen-2-yl)ethynyl)-6-(methylamino)-9H-purin-9-yl)-2,3-dihydroxybicyclo[3.1.0]hexane-1-carboxamide] | < -20 | remaining activity at 10 µM (hDAT [2]): 133%
13 | CNC(=O)[C@@]12C[C@@H]1[C@@H](n1cnc3c(NC)nc(C#Cc4ccc(F)c(F)c4)nc31)[C@H](O)[C@@H]2O [compound 3] | – | hDAT Binding Inhibition, % of control (hDAT [1]): NE (no effect)
14 | CNC(=O)[C@@]12C[C@@H]1[C@@H](n1cnc3c(NC)nc(C#Cc4ccc(Cl)s4)cc31)[C@H](O)[C@@H]2O [compound 6, (1S,2R,3S,4R,5S)-4-(6-((5-Chlorothiophen-2-yl)ethynyl)-4-(methylamino)-1H-imidazo[4,5-c]pyridin-1-yl)-2,3-dihydroxy-N-methylbicyclo[3.1.0]hexane-1-carboxamide] | < -20 | A3AR Binding % at 10 μM (m) (mA3AR): < 50%
15 | CCOC(=O)[C@@]12C[C@@H]1[C@@H](n1cnc3c(NC)nc(C#Cc4ccc(Cl)s4)cc31)[C@H](O)[C@@H]2O [compound 13, Ethyl (1S,2R,3S,4R,5S)-4-(6-((5-chlorothiophen-2-yl)ethynyl)-4-(methylamino)-1H-imidazo[4,5-c]pyridin-1-yl)-2,3-dihydroxybicyclo[3.1.0]hexane-1-carboxylate] | < -20 | –
16 | CCCCOC(=O)[C@@]12C[C@@H]1[C@@H](n1cnc3c(NC)nc(C#Cc4ccc(Cl)s4)nc31)[C@H](O)[C@@H]2O [compound 16, Butyl (1S,2R,3S,4R,5S)-4-(2-((5-chlorothiophen-2-yl)ethynyl)-6-(methylamino)-9H-purin-9-yl)-2,3-dihydroxybicyclo[3.1.0]hexane-1-carboxylate] | < -20 | –
17 | CCOC(=O)[C@@]12C[C@@H]1[C@@H](n1cnc3c(NC)nc(C#Cc4ccc(Cl)s4)nc31)[C@H](O)[C@@H]2O [compound 10, Ethyl (1S,2R,3S,4R,5S)-4-(2-((5-chlorothiophen-2-yl)ethynyl)-6-(methylamino)-9H-purin-9-yl)-2,3-dihydroxybicyclo[3.1.0]hexane-1-carboxylate] | < -20 | A3AR Binding % at 10 μM (m) (mA3AR): < 50%; hNET [^125I]23 binding, % control binding (hNET): ~370%
18 | CCNc1cc(C#Cc2ccc(Cl)s2)nc2c1ncn2[C@H]1[C@H](O)[C@H](O)[C@]2(C(=O)NC)C[C@H]12 [5b] | -20 to 20 | –
19 | CNc1nc(C#Cc2ccc(Cl)s2)nc2c1ncn2[C@H]1[C@H](O)[C@H](O)[C@]2(C(=O)OC)C[C@H]12 [compound 9, Methyl (1S,2R,3S,4R,5S)-4-(2-((5-chlorothiophen-2-yl)ethynyl)-6-(methylamino)-9H-purin-9-yl)-2,3-dihydroxybicyclo[3.1.0]hexane-1-carboxylate] | < -20 | Ki (mA3AR): > 10 µM; A3AR Binding % at 10 μM (m) (mA3AR): < 50%; hNET [^125I]23 binding, % control binding (hNET): ~370%; hDAT [^125I]23 binding, % control binding (hDAT [4]): ~450%; remaining activity at 10 µM (hDAT [2]): 391%
20 | CCOC(=O)[C@@]12C[C@@H]1[C@@H](n1cnc3c(NC)nc(C#Cc4ccc(Br)s4)nc31)[C@H](O)[C@@H]2O [compound 12, Ethyl (1S,2R,3S,4R,5S)-4-(2-((5-bromothiophen-2-yl)ethynyl)-6-(methylamino)-9H-purin-9-yl)-2,3-dihydroxybicyclo[3.1.0]hexane-1-carboxylate] | < -20 | –
21 | CNc1nc(C#Cc2ccc(Cl)s2)nc2c1ncn2[C@@H]1O[C@H](C(=O)OC)[C@@H](O)[C@H]1O [compound 29, Methyl (2S,3S,4R,5R)-5-(2-((5-Chlorothiophen-2-yl)ethynyl)-6-(methylamino)-9H-purin-9-yl)-3,4-dihydroxytetrahydrofuran-2-carboxylate] | < -20 | fold higher EC50 than 9 for enhancement of [^3H]26 binding at hDAT (hDAT [5]): 7 fold
22 | CNc1nc(C#Cc2ccc(Br)s2)nc2c1ncn2[C@H]1[C@H](O)[C@H](O)[C@]2(C(=O)OC)C[C@H]12 [compound 11, Methyl (1S,2R,3S,4R,5S)-4-(2-((5-bromothiophen-2-yl)ethynyl)-6-(methylamino)-9H-purin-9-yl)-2,3-dihydroxybicyclo[3.1.0]hexane-1-carboxylate] | < -20 | –
23 | CNc1nc(C#Cc2ccc(Cl)s2)nc2c1ncn2[C@H]1[C@H](O)[C@H](O)[C@]2(C(=O)OC(C)C)C[C@H]12 [compound 15, Isopropyl (1S,2R,3S,4R,5S)-4-(2-((5-chlorothiophen-2-yl)ethynyl)-6-(methylamino)-9H-purin-9-yl)-2,3-dihydroxybicyclo[3.1.0]hexane-1-carboxylate] | – | hDAT Binding Inhibition, % of control (hDAT [2]; 10 μM, [^3H]24 binding, PDSP): slightly inhibited binding

Source: article PMC5501184 (Journal of medicinal chemistry, 2017)
